{"source": "patent US8247211B2", "about": "“Glycopeptide antibiotics” (American Cyanamid Company, priority 2001, dated 2012)", "experiment_in_all_cases": "In vitro antibacterial evaluation: minimum inhibitory concentration (MIC), broth dilution method", "type_in_all_cases": "cell-based", "key": {"[1]": {"system": "Enterococcus sp.", "settings": "18 hours at 35° C.", "procedure,_shortened": "(§1)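 Susceptibility determined by NCCLS-recommended broth dilution (M7-A2), Muller-Hinton II […]. Concentration span 64-0.06 μg/mL, inoculum 5×10^5 CFU/mL. Isolates include strains resistant to methicillin, penicillin and/or vancomycin.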"}, "[2]": {"system": "Staphylococcus sp.", "procedure,_shortened": "as §1"}, "[3]": {"system": "Streptococcus sp.", "settings": "18 hours at 35° C.", "procedure,_shortened": "as §1"}, "[4]": {"system": "Escherichia coli", "settings": "18 hours at 35° C.", "procedure,_shortened": "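First, organisms are seeded at 5×10^5 CFU/mL into Muller-Hinton II […]. Next, antibiotic is applied across 64-0.06 μg/mL by broth dilution (NCCLS M7-A2). Finally, the lowest inhibitory concentration is recorded as MIC.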"}, "[5]": {"settings": "broth dilution, inoculum 5×10^5 CFU/mL"}}, "data": [{"smiles": "COc1ccc2cc(C3OCC4OC(OC5C(CO)OC(Oc6ccc(CC7NC(=O)C(C(C)c8ccccc8)NC(=O)CNC(=O)C(CO)NC(=O)C(CC8CNC(=N)N8C8OC(CO)C(O)C(O)C8O)NC(=O)C(CC8CNC(=N)N8)NC7=O)cc6)C(O)C5O)C(O)C(O)C4O3)ccc2c1", "note": "(stereo not shown) [Example 190]", "values": [{"measurement": "MIC Enterococcus avium (GC 4558)", "setting": "[1]; Enterococcus avium (GC 4558)", "result": 16, "unit": "µg/mL"}, {"measurement": "MIC Enterococcus faecalis (ATCC 29212)", "setting": "[1]; Enterococcus faecalis (ATCC 29212)", "result": 32, "unit": "µg/mL"}, {"measurement": "MIC Enterococcus faecalis (GC 2242)", "setting": "[1]; Enterococcus faecalis (GC 2242)", "result": 32, "unit": "µg/mL"}, {"measurement": "MIC Enterococcus faecalis (GC 2691)", "setting": "[1]; Enterococcus faecalis (GC 2691)", "result": 32, "unit": "µg/mL"}, {"measurement": "MIC Enterococcus faecalis (GC 3059)", "setting": "[1]; Enterococcus faecalis (GC 3059)", "result": 32, "unit": "µg/mL"}, {"measurement": "MIC Enterococcus faecalis (GC 4552)", "setting": "[1]; Enterococcus faecalis (GC 4552)", "result": 32, "unit": "µg/mL"}, {"measurement": "MIC Enterococcus faecalis (GC 4553)", "setting": "[1]; Enterococcus faecalis (GC 4553)", "result": 32, "unit": "µg/mL"}, {"measurement": "MIC Enterococcus faecalis (GC 4554)", "setting": "[1]; Enterococcus faecalis (GC 4554)", "result": 32, "unit": "µg/mL"}, {"measurement": "MIC Enterococcus faecalis (GC 6189)", "setting": "[1]; Enterococcus faecalis (GC 6189)", "result": 32, "unit": "µg/mL"}, {"measurement": "MIC Enterococcus faecium (GC 2243)", "setting": "[1]; Enterococcus faecium (GC 2243)", "result": 32, "unit": "µg/mL"}, {"measurement": "MIC Enterococcus faecium (GC 4556)", "setting": "[1]; Enterococcus faecium (GC 4556)", "result": 32, "unit": "µg/mL"}, {"measurement": "MIC Enterococcus faecium (GC 4557)", "setting": "[1]; Enterococcus faecium (GC 4557)", "result": 8, "unit": "µg/mL"}, {"measurement": "MIC Enterococcus avium (GC 4558)", "setting": "[1]; [5]", "result": 16, "unit": "µg/mL"}, {"measurement": "MIC Enterococcus faecalis (ATCC 29212)", "setting": "[1]; [5]", "result": 32, "unit": "µg/mL"}, {"measurement": "MIC Enterococcus faecalis (GC 2242)", "setting": "[1]; [5]", "result": 32, "unit": "µg/mL"}, {"measurement": "MIC Enterococcus faecalis (GC 2691)", "setting": "[1]; [5]", "result": 32, "unit": "µg/mL"}, {"measurement": "MIC Enterococcus faecalis (GC 3059)", "setting": "[1]; [5]", "result": 32, "unit": "µg/mL"}, {"measurement": "MIC Enterococcus faecalis (GC 4552)", "setting": "[1]; [5]", "result": 32, "unit": "µg/mL"}, {"measurement": "MIC Enterococcus faecalis (GC 4553)", "setting": "[1]; [5]", "result": 32, "unit": "µg/mL"}, {"measurement": "MIC Enterococcus faecalis (GC 4554)", "setting": "[1]; [5]", "result": 32, "unit": "µg/mL"}, {"measurement": "MIC Enterococcus faecalis (GC 6189)", "setting": "[1]; [5]", "result": 32, "unit": "µg/mL"}, {"measurement": "MIC Enterococcus faecium (GC 2243)", "setting": "[1]; [5]", "result": 32, "unit": "µg/mL"}, {"measurement": "MIC Enterococcus faecium (GC 4556)", "setting": "[1]; [5]", "result": 32, "unit": "µg/mL"}, {"measurement": "MIC Enterococcus faecium (GC 4557)", "setting": "[1]; [5]", "result": 8, "unit": "µg/mL"}, {"measurement": "MIC Staphylococcus aureus (ATCC 29213)", "setting": "[2]; strain ATCC 29213", "result": 16, "unit": "µg/mL"}, {"measurement": "MIC Staphylococcus aureus (GC 1131)", "setting": "[2]; strain GC 1131", "result": 16, "unit": "µg/mL"}, {"measurement": "MIC Staphylococcus aureus (GC 3051)", "setting": "[2]; strain GC 3051", "result": 16, "unit": "µg/mL"}, {"measurement": "MIC Staphylococcus aureus (GC 3053)", "setting": "[2]; strain GC 3053", "result": 16, "unit": "µg/mL"}, {"measurement": "MIC Staphylococcus aureus (GC 4541)", "setting": "[2]; strain GC 4541", "result": 8, "unit": "µg/mL"}, {"measurement": "MIC Staphylococcus aureus (GC 4542)", "setting": "[2]; strain GC 4542", "result": 4, "unit": "µg/mL"}, {"measurement": "MIC Staphylococcus aureus-SMITH (GC 4543)", "setting": "[2]; strain GC 4543", "result": 4, "unit": "µg/mL"}, {"measurement": "MIC Staphylococcus aureus (GC 4544)", "setting": "[2]; strain GC 4544", "result": 16, "unit": "µg/mL"}, {"measurement": "MIC Staphylococcus aureus (GC 4545)", "setting": "[2]; strain GC 4545", "result": 16, "unit": "µg/mL"}, {"measurement": "MIC Staphylococcus haemolyticus (GC 4546)", "setting": "[2]; strain GC 4546", "result": 8, "unit": "µg/mL"}, {"measurement": "MIC Coagulase Negative Staphylococcus (GC 4547)", "setting": "[2]; strain GC 4547", "result": 8, "unit": "µg/mL"}, {"measurement": "MIC Coagulase Negative Staphylococcus (GC 4548)", "setting": "[2]; strain GC 4548", "result": 8, "unit": "µg/mL"}, {"measurement": "MIC Coagulase Negative Staphylococcus (GC 4549)", "setting": "[2]; strain GC 4549", "result": 8, "unit": "µg/mL"}, {"measurement": "MIC Coagulase Negative Staphylococcus (GC 4551)", "setting": "[2]; strain GC 4551", "result": 16, "unit": "µg/mL"}, {"measurement": "MIC Coagulase Negative Staphylococcus (GC 6257)", "setting": "[2]; strain GC 6257", "result": 8, "unit": "µg/mL"}, {"measurement": "MIC Streptococcus agalactiae (GC 4564)", "setting": "[3]; Streptococcus agalactiae (GC 4564)", "result": 16, "unit": "µg/mL"}, {"measurement": "MIC Streptococcus pneumoniae (ATCC 6301)", "setting": "[3]; Streptococcus pneumoniae (ATCC 6301)", "result": 8, "unit": "µg/mL"}, {"measurement": "MIC Streptococcus pneumoniae (GC 1894)", "setting": "[3]; Streptococcus pneumoniae (GC 1894)", "result": 4, "unit": "µg/mL"}, {"measurement": "MIC Streptococcus pneumoniae (GC 4565)", "setting": "[3]; Streptococcus pneumoniae (GC 4565)", "result": 8, "unit": "µg/mL"}, {"measurement": "MIC Streptococcus pyogenes (GC 4563)", "setting": "[3]; Streptococcus pyogenes (GC 4563)", "result": 16, "unit": "µg/mL"}, {"measurement": "MIC Streptococcus agalactiae (GC 4564)", "setting": "[3]; [5]", "result": 16, "unit": "µg/mL"}, {"measurement": "MIC Streptococcus pneumoniae (ATCC 6301)", "setting": "[3]; [5]", "result": 8, "unit": "µg/mL"}, {"measurement": "MIC Streptococcus pneumoniae (GC 1894)", "setting": "[3]; [5]", "result": 4, "unit": "µg/mL"}, {"measurement": "MIC Streptococcus pneumoniae (GC 4565)", "setting": "[3]; [5]", "result": 8, "unit": "µg/mL"}, {"measurement": "MIC Streptococcus pyogenes (GC 4563)", "setting": "[3]; [5]", "result": 16, "unit": "µg/mL"}, {"measurement": "MIC Escherichia coli (ATCC 25922)", "setting": "[4]; Escherichia coli (ATCC 25922)", "result": ">64", "unit": "µg/mL"}, {"measurement": "MIC Escherichia coli (GC 4559)", "setting": "[4]; Escherichia coli (GC 4559)", "result": ">64", "unit": "µg/mL"}, {"measurement": "MIC Escherichia coli (GC 4560)", "setting": "[4]; Escherichia coli (GC 4560)", "result": 16, "unit": "µg/mL"}]}]}
